ChEMBL document CHEMBL1201862, “PubChem BioAssay data set” (2004)
Calls of active or inactive are those of the source. Rule as the data show it: actives have a measured IC50 and inactives only a lower limit.

Molecular target: Envelope glycoprotein gp160 (Human immunodeficiency virus 1, UniProt Q6QLK5)
Test: cell-free HIV fusion peptide-binding blockers – biochemical, uHTS, fluorescence dequenching, […] (AID 1986)

Chain of Envelope glycoprotein gp160 (Q6QLK5 whole entry, the tested form may be a part): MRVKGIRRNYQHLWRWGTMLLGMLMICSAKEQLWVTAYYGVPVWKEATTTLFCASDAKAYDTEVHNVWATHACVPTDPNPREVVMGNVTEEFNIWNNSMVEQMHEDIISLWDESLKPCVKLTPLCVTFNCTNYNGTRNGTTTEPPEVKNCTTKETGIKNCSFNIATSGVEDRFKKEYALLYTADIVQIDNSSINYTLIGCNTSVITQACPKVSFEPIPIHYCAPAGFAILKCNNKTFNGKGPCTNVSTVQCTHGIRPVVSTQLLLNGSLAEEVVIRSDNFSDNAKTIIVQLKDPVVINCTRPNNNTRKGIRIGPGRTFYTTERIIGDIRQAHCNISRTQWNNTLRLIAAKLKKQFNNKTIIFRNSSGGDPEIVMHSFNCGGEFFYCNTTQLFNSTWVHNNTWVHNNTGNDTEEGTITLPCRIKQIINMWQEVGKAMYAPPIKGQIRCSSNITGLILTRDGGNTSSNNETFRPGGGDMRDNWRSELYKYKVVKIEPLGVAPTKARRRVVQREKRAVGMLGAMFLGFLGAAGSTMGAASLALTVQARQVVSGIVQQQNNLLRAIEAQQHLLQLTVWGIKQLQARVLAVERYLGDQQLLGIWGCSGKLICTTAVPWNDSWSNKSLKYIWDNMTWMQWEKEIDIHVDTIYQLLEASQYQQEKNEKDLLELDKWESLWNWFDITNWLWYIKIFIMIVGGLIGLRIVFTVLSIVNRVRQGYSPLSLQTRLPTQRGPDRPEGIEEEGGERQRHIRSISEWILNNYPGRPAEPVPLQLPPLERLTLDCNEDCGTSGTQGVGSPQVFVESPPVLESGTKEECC

Question: With COc1ccc(-c2coc3c(C)c4oc(=O)c(CCC(=O)O)c(C)c4cc23)cc1 as the compound, how does the IC50 read?
Answer: 41.7 µM (active)
